As a reminder, the IC50 is the concentration at which inhibition is half-maximal.

In assay [1] the test system is A/Duck/HK/313/4/78 (H5N3). The format is cell-based, Influenza A virus (Avian strain). Particulars: read-out: HI activity IC50.
The subject of the next assay is A/Aichi/2/68 (H3N2). The format is cell-based, Influenza A virus (Human strain). Particulars: for IC50: read-out: HI activity IC50.

Turning to “Poly[Neu5Ac α2-6lactosylamine β-N-(ε-aminocaproyl)/γ-PGA]”, the half-inhibitory concentration (IC50) is greater than 0.2 µM in assay [1] and 0.0047 µM in the assay with A/Aichi/2/68 (H3N2).
Turning to “Poly[Neu5Ac α2-6-lacto-N-neotetraosylamine β-N-(ε-aminocaproyl)/γ-PGA]”, in assay [1], the IC50 is greater than 0.2 µM. In the assay on A/Aichi/2/68 (H3N2), the “inhibition activity of human influenza virus infection compared with Poly[Neu5Ac α2-6-LacNAc β-N-(ε-aminocaproyl/γ-PGA]” value was “many more times greater” and the IC50 was determined as 0.00029 µM.
As to “Poly[N-(ε-aminocaproyl)-β-lacto-N-neotetraosylamine/-γ-PGA]]”, the IC50 (in assay [1]; with A/Aichi/2/68 (H3N2)) was greater than 0.2 µM throughout.
In the case of “Poly[N-(ε-aminocaproyl)-β-N-acetyllactosaminylamine/-γ-PGA]]”, the IC50 (in assay [1]; with A/Aichi/2/68 (H3N2)) was greater than 0.2 µM throughout.
In the case of “Poly[Neu5Ac α2-6-N-acetyllactosaminylamine β-N-(ε-aminocaproyl)/γ-PGA]”, the values for the 50% inhibitory concentration (IC50) (in assay [1]; in the assay on A/Aichi/2/68 (H3N2)) were greater than 0.2 µM and 0.0012 µM, respectively. Also, the “inhibition activity of human influenza virus infection compared with conventional O-linked sialo-glycan-containing polymer” value with A/Aichi/2/68 (H3N2) is “many times greater”.
For the substance “Poly[Neu5Ac α2-3lactosylamine β-N-(ε-aminocaproyl)/γ-PGA]”, the IC50 (in assay [1]; with A/Aichi/2/68 (H3N2)) was 0.0375 µM each time.
With “Poly[Neu5Ac α2-3-N-acetyllactosaminylamine β-N-(ε-aminocaproyl)/γ-PGA]”, the IC50 (in assay [1]; in the assay with A/Aichi/2/68 (H3N2)) was 0.0375 µM each time.
In the case of “Poly[Neu5Ac α2-3lacto-N-neotetraosylamine β-N-(ε-aminocaproyl)/γ-PGA]”, the half-maximal inhibitory concentration (IC50) in assay [1] was determined as 0.0375 µM; in the assay with A/Aichi/2/68 (H3N2), 0.0188 µM.
Regarding “Poly[N-(ε-aminocaproyl)-β-lactosylamine/-γ-PGA]]”, the 50% inhibitory concentration (IC50) (in assay [1]; in the assay on A/Aichi/2/68 (H3N2)) was greater than 0.2 µM each time.

The values are drawn from patent publication US8450441B2, “Synthetic N-linked sialo-glycan-containing polymer and method for producing the same” (priority 2007, dated 2013).
